According to patent US8163160B2, “Biosensor having improved hematocrit and oxygen biases” (Abbott Diabetes Care Inc., priority 2002, dated 2012):
In brackets after ≈: the same amount, converted by molar mass.

Assay: Solubility tests in water
Assay type: physicochemical
Description: Solubility tests in water were performed on the new redox mediators in comparison with the standard PQ mediators.

O=C1C(=O)c2cccnc2-c2ncccc21 [PQ, 1,10-phenanthroline-5,6-dione, reference compound]
Solubility in Water (percent): mg/ml (0.2%)
solubility: 2000 µg/mL (≈ 9.52 mM)

O=C1C(=O)c2cccnc2-c2ncccc21.O=C1C(=O)c2cccnc2-c2ncccc21.O=C1C(=O)c2cccnc2-c2ncccc21.[Ni+2].[O-][Cl+3]([O-])([O-])[O-].[O-][Cl+3]([O-])([O-])[O-] [[Ni(PQ)3](ClO4)2]
Solubility in Water: <500 µg/mL
Solubility in Water (percent): mg/ml (<0.05%)

CC(=O)[O-].CC(=O)[O-].O=C1C(=O)c2cccnc2-c2ncccc21.O=C1C(=O)c2cccnc2-c2ncccc21.O=C1C(=O)c2cccnc2-c2ncccc21.[Ni+2] [[Ni(PQ)3](O2CCH3)2]
Solubility in Water: >500000 µg/mL
Solubility in Water (percent): mg/ml (>50%)
